Measured values: patent US9624520B2, “Biosynthetically generated pyrroline-carboxy-lysine and site specific protein modifications via chemical derivatization of pyrroline-carboxy-lysine and pyrrolysine residues” (Novartis AG, priority 2008, dated 2017)
Entries after “also recorded” stand apart in the source; their conditions may differ. Counter-ions that a name gives are not always drawn.

How the values were obtained:
[1] = test system: HEK293F cells; test: Incorporation test with putative PCL and pyrrolysine precursors (full-length hRBP4 Phe122PCL); assay type: cell-based, human; details: 5 mM precursor; HEK293F cells with pylT, pylS, pylB, pylC, pylD; Western blot and SDS-PAGE of Ni-NTA purified samples
Method: The production of full-length hRBP4 Phe122PCL protein (mutant #6) was measured in the presence of the putative PCL precursor D-ornithine, D-proline, D-arginine, D-glutamic acid, 4-hydroxyl-D-proline and 2-pyrrolidone-5-carboxylic acid (FIGS. 13A and B, FIG. 14A). pRSRBP was co-transfected into HEK293F cells with pCMVpyS, pCMVpyB, pCMVpyC and pCMVpyD and cells were grown in the presence of 5 mM of the putative precursor (FIG. 14A) as described in Example 2.

[2] = Compound stability (degradation measured by nuclear magnetic resonance spectroscopy); assay type: physicochemical
[3] = biological target: T1, pylS tRNA synthetase (Methanosarcina mazei, UniProt Q8PWY1); test: Incorporation test with synthetic pyrrolysine analogues (full-length hRBP4 mutant #6); assay type: cell-based; details: 2 or 5 mM analogue, HEK293F cells with pylT/pylS only, Western blot and SDS-PAGE
T1 construct: expressed in transfected cells; host or cells: HEK293F
T1 sequence (Q8PWY1 whole entry): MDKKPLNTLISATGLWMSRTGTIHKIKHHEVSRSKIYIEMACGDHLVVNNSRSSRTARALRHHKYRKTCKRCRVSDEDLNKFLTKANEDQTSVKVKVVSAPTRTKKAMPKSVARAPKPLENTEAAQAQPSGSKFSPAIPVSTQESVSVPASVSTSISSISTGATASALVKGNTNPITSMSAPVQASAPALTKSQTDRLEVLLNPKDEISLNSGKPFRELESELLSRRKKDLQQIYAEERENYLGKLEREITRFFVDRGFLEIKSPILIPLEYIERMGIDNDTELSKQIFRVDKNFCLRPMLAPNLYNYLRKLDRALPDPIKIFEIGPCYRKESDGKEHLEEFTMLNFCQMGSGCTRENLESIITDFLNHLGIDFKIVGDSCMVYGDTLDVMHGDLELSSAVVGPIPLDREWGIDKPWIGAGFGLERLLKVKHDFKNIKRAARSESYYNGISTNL
Method: In parallel to the above experiment, the production of full-length hRBP4 Phe122PCL protein (mutant #6) was also measured in the presence of a series of synthetic pyrrolysine analogues designed with an acetyl moiety for chemical derivatization after protein incorporation (FIG. 14B). The synthetic analogues were prepared as described in Example 19. pRSRBP was co-transfected into HEK293F cells with pCMVpyS which supplies one gene copy of pylT tRNA and of pylS tRNA synthetase. Depending on solubility, the synthetic analogues were added to the media either at 2 or 5 mM final concentration.

[4] = pH 5
[5] = test system: HK100 cells; test: Incorporation of other analogues and precursors into FAS-TE L2222TAG (Ni-NTA, SDS-PAGE, Bradford); assay type: cell-based, Escherichia coli; details: for Bradford: 25 ml culture; for full-length protein production / PCL biosynthesis from precursor: Escherichia coli cells with pylB/pylC/pylD/pylS/pylT
[6] = test system: PylD; test: NMR evaluation of Lys-Nε-D-Orn as substrate for PylD; assay type: biochemical, Methanosarcina mazei
[7] = purified FAS-TE from HK100 cells with pylB/pylC/pylD/pylS/pylT (lanes 5-11)

O=C(O)[C@H]1CCCN1 [D-proline]
production of full-length hRBP4 Phe122PCL protein in the presence of putative precursor [1]: did not result in full-length protein production above background

CC(=O)CC(=O)NCCCC[C@H](N)C(=O)O [TU3000-016, (S)-2-amino-6-(3-oxobutanamido)hexanoic acid hydrochloride]
compound stability [2]: not stable | production of full-length hRBP4 (mutant #6) in the presence of synthetic pyrrolysine analogue ([3]; hydrochloride): measurable but much lower incorporation; also recorded: viable substrate for the pylS tRNA synthetase

NCCC[C@@H](N)C(=O)O [D-ornithine]
production of full-length hRBP4 Phe122PCL protein in the presence of putative precursor [1]: measurable protein band

N[C@H](CCC(=O)O)C(=O)O [D-glutamic acid]
production of full-length hRBP4 Phe122PCL protein in the presence of putative precursor [1]: did not result in full-length protein production above background

Nc1ccc([N+](=O)[O-])cc1C(=O)c1ccccc1 [2-ANBP, 2-amino-5-nitro-benzophenone]
solubility [4]: low solubility

N[C@@H](CCCCNC(=O)C1CCC=N1)C(=O)O (mixture of isomers) [PCL-A, (S)-2-amino-6-(3,4-dihydro-2H-pyrrole-2-carboxamido) hexanoic acid]
incorporation into protein (full-length FAS-TE) ([5]; Escherichia coli cells with only pylS and pylT genes): incorporated with high efficiency; also recorded: incorporated into proteins | Bradford ([5]; purified FAS-TE from HK100 cells with pylS/pylT genes only (lanes 1-4)): 0.539 mg/25 ml

O=C(O)C1=NCCC1 [P2C, 3,4-dihydro-2H-pyrrole-5-carboxylate]
full-length protein production / PCL biosynthesis from precursor [5]: failed to produce full-length protein; also recorded: not sufficient to support PCL biosynthesis | Bradford [5, 7]: 0.103 mg/25 ml

O=C(O)C1CCC=N1 (racemic) [P5C, Ammonium DL-1-pyrroline-5-carboxylate]
full-length protein production / PCL biosynthesis from precursor [5]: failed to produce full-length protein; also recorded: not sufficient to support PCL biosynthesis | Bradford [5, 7]: 0.075 mg/25 ml

N[C@@H](CCCCNC(=O)OC1CCCC1)C(=O)O [CYC, N-ε-cyclopentyloxycarbonyl-L-lysine, reference compound]
production of full-length hRBP4 (mutant #6) in the presence of synthetic pyrrolysine analogue [3]: protein production to a level similar to D-ornithine; also recorded: measurable protein band

N=C(N)NCCC[C@@H](N)C(=O)O [D-arginine]
production of full-length hRBP4 Phe122PCL protein in the presence of putative precursor [1]: above background protein production

NCCC[C@@H](N)C(=O)NCCCC[C@H](N)C(=O)O [Lys-Nε-D-ornithine, (2S)-2-amino-6-((R)-2,5-diaminopentanamido)hexanoic acid]
full-length protein production / PCL biosynthesis from precursor ([5]; listed as Lys-Nε-D-Orn): resulted in protein expression with PCL incorporated at the amber codon | full-length protein production / PCL biosynthesis from precursor ([5]; listed as Lys-Nε-D-orn): substantial amounts of full-length protein | Bradford [5, 7]: 1.66 mg/25 ml | substrate for PylD [6]: substrate for PylD
